Test results from publication PMC11073428, “The activity of pyrazolo[4,3-e][1,2,4]triazine and pyrazolo[4,3-e]tetrazolo[1,5-b][1,2,4]triazine sulphonamide derivatives in monolayer and spheroid breast cancer cell cultures” (Journal of Enzyme Inhibition and Medicinal Chemistry, 2024).

Experiments:
[1] = system: MCF-7 breast cancer cells; experiment: Apoptosis, annexin V-FITC/PI flow cytometry, MCF-7; format: cell-based, human; settings: 24 h
Protocol: (§1) The analysis was performed using flow cytometry Apoptosis Detection Kit II (BD Biosciences, San Diego, CA) as described previously.

[2] = system: MDA-MB-231 breast cancer cells; experiment: Apoptosis, annexin V-FITC/PI flow cytometry, MDA-MB-231; format: cell-based, human; settings: 24 h
Protocol: as §1

ROS in MCF-7 cells = experiment: Total ROS activity, flow cytometry, MCF-7; format: cell-based, human; settings: for cells that generated ROS: 24 h
Protocol: In brief, cells were washed two times with cold PBS solution and incubated in a solution of ROS Green dye in Assay Buffer and incubated for 1 h in optimal cell growth parameters, protected from light. After incubation, cells were washed with assay buffer. Subsequently, fluorescence emission intensities at 490 nm excitation and 520 nm emission were recorded in 500 μL assay buffer using flow cytometer BD FACSCanto II flow cytometer and FACSDiva software (BD Biosciences Systems, San Jose, CA).

[3] = system: caspase 10 in MCF-7 cells; experiment: Activity of caspase 10, MCF-7; format: cell-based, human; settings: 24 h
Protocol: (§2) MCF-7 and MDA-MB-231 cells were plated in six-well plates at density 1 × 10^6 and cultured in DMEM for 24 h. […] Then to identify the involvement of caspase family in inducing apoptosis, cells were pre-treated with Z-VAD-FMK (100 µM) 2 h before adding compounds[28]. The activation of caspases 9, 10, and 3/7 was detected as described before.

caspase 9 in MCF-7 cells = experiment: Activity of caspase 9, MCF-7; format: cell-based, human; settings: MCF-7, 0.5 µM, 24 h
Protocol: as §2

[4] = system: caspase 3/7 in MCF-7 cells; experiment: Activity of caspase 3/7, MCF-7; format: cell-based, human; settings: MCF-7, 24 h; cell line does not express caspase 3
Protocol: as §2

mTOR in MDA-MB-231 cells = experiment: Anti-mTOR antibody flow cytometry, MDA-MB-231; format: cell-based, human; settings: MDA-MB-231, 0.25 µM and 0.5 µM, 24 h
Protocol: To evaluate the molecular mechanism of induction of apoptosis of tested compounds, the level of p53, NF-κB, mTOR, Bax, and beclin-1 was measured using appropriate antibody according to the manufacturer’s instruction. In brief, tryspinised cells were centrifuged, then supernatant was discarded, and cells were suspended in 4% FA (formaldehyde). Prepared samples were incubated 15 min at RT. Following incubation, the 2.5 mL PBS was added to each sample and centrifuged. Then, supernatant was discarded, and cells were resuspended in 90% ice-cold methanol to perform permeabilisation and left for 1 h in ice. To remove methanol, cells were rinsed with excess PBS by centrifugation. Following centrifugation, the supernatant was discarded. Then, cells were resuspended in 100 µL of appropriate diluted (1:100 in PBS) antibody conjugate (p53 (7F5) Rabbit mAb – Alexa Fluor 488 Conjugate #5429 Cell Signalling Technology, Danvers, MA; NF-κB p65 (D14E12) XP Rabbit mAb – Alexa Fluor 647 Conjugate #8801 Cell Signalling Technology, Danvers, MA; mTOR (7C10) Rabbit mAB – Alexa Fluor 647 #5048 Cell Signalling Technology, Danvers, MA; FITC Anti-Bax antibody (T22-A) #ab139543, Abcam, Cambridge, UK) and incubated 1 h in the dark at RT. Afterwards, cells were washed by centrifugation in 2 mL of incubation buffer. Finally, supernatant was removed and 300 µL PBS was added to each sample and pipetted. […]

beclin-1 in MCF-7 cells = experiment: Anti-beclin-1 antibody flow cytometry, MCF-7; format: cell-based, human; settings: MCF-7, 0.5 µM, 24 h
Protocol: (§3) The fixation and permeabilisation were performed as described above. Cells were resuspended in 100 µL of diluted primary antibody (1:100 in PBS, anti-beclin 1 antibody (2A4) #ab114071, Abcam, Cambridge, UK) and incubated 30 min in the dark at RT. The cells were washed three times by centrifugation in PBS. Then to each probe, 100 µL of diluted fluorochrome-labelled secondary antibody (1:100 in PBS; goat anti-mouse IgG H&L – Alexa Fluor 488 #ab150113, Abcam, Cambridge, UK) was added and incubated 30 min in dark at RT. Then, cells were rinsed with 2.5 mL PBS. In the last step, supernatant was discarded and cells were resuspended in 300 µL PBS and pipetted. The analysis was carried out by flow cytometry.

[5] = system: beclin-1 in MDA-MB-231 cells; experiment: Anti-beclin-1 antibody flow cytometry, MDA-MB-231; format: cell-based, human; settings: MDA-MB-231, 0.5 µM, 24 h
Protocol: as §3

MCF-7 spheroids = experiment: 3D spheroid culture, MCF-7; format: cell-based, human
Protocol: The 3D cell culture was carried out with 6-Well Bio-Assembler Kit in accordance with the manufacturer’s instructions (Greiner Bio-One GmbH, Frickenhausen, Germany). First, MCF-7 and MDA-MB-231 were cultured in 2D using procedure and supplied to 80% confluency and treated with nanoshuttle at concentration of 1 µL/10 000 cell and incubated overnight. Following incubation, the medium was removed, and the cells were detached by trypsin–EDTA solution and resuspended in DMEM. The cells were counted using Scepter 2.0 Handheld Automated Cell Counter (Merck, Darmstadt, Germany) and plated at the concentration 1 × 10^6 cells per well in six-well plate. Then, cells were gently tilted in the flask to evenly distribute the nanoparticle and incubated (37 °C, 5% CO2, 95–98% humidity) for 1 h with magnet on the top of the plate. The cells self-assemble to spheroids. The obtained 3D cell culture was incubated until analysis.
The visualisation of the morphological changes in 3D cell culture of MCF-7 and MDA-MB-231 was evaluated using microscope (Nikon Eclipse Ti, Tokyo, Japan).
The mean ± standard deviation (SD) for all data is presented. One-way and two-way analysis of variance (ANOVA) was conducted followed by Dunnett’s test. GraphPad 8.0.1 Prism software (GraphPad Software, San Diego, CA) was used for calculation. The analysis of spheroids area was carried out using ImageJ software from the NIH (Bethesda, MD).

in vitro = settings: human
[6] = system: MDA-MB-231 breast cancer cells; experiment: MTT viability assay, MDA-MB-231
Protocol: Following 24-h incubation with tested compounds, the medium was discarded from the cell cultures. Then, into each well with cells was added 1 mL of PBS and 50 µL of MTT solution (5 mg per mL). Cells were incubated at 37 °C and 5% CO2 in humidified atmosphere for a defined time appropriate for each cell line. After incubation, the solution above the cells was removed and obtained purple formazan crystals were dissolved in 1 mL DMSO. The absorbance was read at OD = 570 nm on Evolution 201 Spectrophotometer (Thermo Scientific, Waltham, MA).

melting point: 170 to 172 °C | IC50 at 24 h (in vitro): 2.3 ± 0.04 µM
Compound: Cc1nn(-c2ccc(S(=O)(=O)N[C@@H](CO)Cc3ccccc3)cc2)c2nn3nnnc3nc12 [Compound 3b, (R)-N-(1-hydroxy-3-phenylpropan-2-yl)-4-(7-methyl-5H-pyrazolo[4,3-e]tetrazolo[1,5-b][1,2,4]triazin-6-yl)benzenesulfonamide]
apoptotic cells ([1]; MCF-7, 0.25 µM): 50.6 ± 3.5% | early and late apoptotic cells ([1]; MCF-7, 0.5 µM): 98.9 ± 1.6% | apoptotic cells ([2]; MDA-MB-231, 0.25 µM): 11.8 ± 1.3% | early and late apoptotic cells ([2]; MDA-MB-231, 0.5 µM): 29.5 ± 0.9% | cells that generated ROS (ROS in MCF-7 cells; MCF-7, 0.25 µM): 19.8 ± 2.2% | increase of ROS level compared to control (ROS in MCF-7 cells; MCF-7, 0.5 µM): 12 times | cells that generated ROS (ROS in MCF-7 cells; MCF-7, 0.5 µM): 27.5 ± 1.3% | cells with active caspase 10 ([3]; MCF-7, 0.25 µM): 12.9 ± 0.8% | cells with active caspase 10 ([3]; MCF-7, 0.5 µM): 70.8 ± 1.1% | percentage of active form of caspase 9 (caspase 9 in MCF-7 cells): 72.1 ± 2.3% | effect on executive caspase 7 (in words) [4]: increase in activity of executive caspase 7 | effect on cells with active mTOR (in words) (mTOR in MDA-MB-231 cells): decrease in the number of cells with active mTOR | cells with active beclin-1 (beclin-1 in MCF-7 cells): 13.9 ± 2.6% | cells with active beclin-1 [5]: 8.1 ± 0.1% | effect on spheroid formation (in words) (MCF-7 spheroids; 0.25 µM and 0.5 µM): slower formation of spheroids compared to untreated cells | spheroids smaller compared to the control (MCF-7 spheroids; 0.5 µM, 24 h): approximately 86.37 ± 7.7% | IC50 ([6]; Homo sapiens, MDA-MB-231, 24 h, read-out: Cytotoxicity IC50 MDA-MB-231): 0.31 ± 0.14 µM | times stronger than the corresponding sulphonyl derivative (2a or 2b), MDA-MB-231 ([6]; ratio of cytotoxicity, 3a vs 2a, 3b vs 2b): 25 times
